Laboratory results from patent publication US20090221567A1, “MUSCARINIC RECEPTOR AGONISTS, COMPOSITIONS, METHODS OF TREATMENT THEREOF, AND PROCESSES FOR PREPARATION THEREOF 177” (ASTRAZENECA AB, priority 2008, published 2009).
Where two headings read alike, the source gives them in different places.

Key:
Type in all cases: cell-based
[1] = biological target: T1, hM5 (human Muscarinic receptor subtype 5) (Homo sapiens, UniProt P08912); experiment: Human M5 calcium mobilization FLIPR assay; conditions: receptor expressed in CHO cells, intracellular Ca2+ release
T1 construct: expressed in transfected cells; host or cells: CHO cells (Chinese hamster ovary cells, ATCC)
T1 sequence (P08912 1-532): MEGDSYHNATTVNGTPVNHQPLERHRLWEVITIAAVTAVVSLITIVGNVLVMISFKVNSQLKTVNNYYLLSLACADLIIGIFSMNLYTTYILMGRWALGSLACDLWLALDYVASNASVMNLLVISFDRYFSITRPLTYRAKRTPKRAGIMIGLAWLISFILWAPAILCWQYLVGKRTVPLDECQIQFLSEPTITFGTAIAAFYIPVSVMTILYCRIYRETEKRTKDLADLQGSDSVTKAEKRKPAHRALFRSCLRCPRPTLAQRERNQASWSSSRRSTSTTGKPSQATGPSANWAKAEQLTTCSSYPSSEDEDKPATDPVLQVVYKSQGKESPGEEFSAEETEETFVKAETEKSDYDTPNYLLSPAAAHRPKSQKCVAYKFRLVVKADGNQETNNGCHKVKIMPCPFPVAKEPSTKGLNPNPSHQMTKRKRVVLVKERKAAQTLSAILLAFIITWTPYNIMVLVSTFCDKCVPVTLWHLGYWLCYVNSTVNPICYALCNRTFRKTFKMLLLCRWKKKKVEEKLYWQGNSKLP
Procedure: (§1) The compound activity in the present invention (EC50 or IC50) is measured using a 384 plate-based imaging assay that monitors drug induced intracellular Ca^2+ release in whole cells. Activation of hM1 (human Muscarinic receptor subtype 1, gene bank access NM_000738), rM1 (rat Muscarinic receptor subtype 1, gene bank access NM_080773), hM3 (human Muscarinic receptor subtype 3, gene bank access NM_000740NM_000740) and hM5 (human Muscarinic receptor subtype 5, gene bank access NM_0121258), receptors expressed in CHO cells (Chinese hamster ovary cells, ATCC) is quantified in a Molecular Devices FLIPR IITM instrument as an increase in fluorescent signal. Inhibition of hM3 and hM5 by compounds is determined by the decrease in fluorescent signal in response to 2 nM acetylcholine activation.
(§2) Prior to experiment, the cell culture medium is removed from the plates by inversion. […] Plates are incubated at 37° C. for 60 minutes prior to start the experiment. The incubation is terminated by washing the cells four times in assay buffer, leaving a residual 25 μl buffer per well. Cell plates are then transferred to the FLIPR, ready for compound additions.
(§3) The day of experiment, acetylcholine and compounds are diluted in assay buffer in three-fold concentration range (10 points serial dilution) for addition by FLIPR instrument. For all calcium assays, a baseline reading is taken for 10 seconds followed by the addition of 12.5 μl of compounds, resulting in a total well volume of 37.5 μl. Data is collected every second for 60 pictures and then every 6 seconds for 20 pictures prior to the addition of agonist. For hM3 and hM5, before agonist addition, a second baseline reading is taken for 10 seconds followed by the addition of 12.5 μl of agonist or buffer, producing a final volume of 50 μl. After agonist stimulation, the FLIPR continues to collect data every second for 60 pictures and then every 6 seconds for 20 pictures. The fluorescence emission is read using filter 1 (emission 510-570 nm) by the FLIPR on board CCD camera.
(§4) Calcium mobilization output data are calculated as the maximal relative fluorescence unit (RFU) minus the minimal value for both compound and agonist reading frame (except for hM1 and rM1 using only the maximal RFU). Data are analyzed using sigmoidal fits of a non-linear curve-fitting program (XLfit version 4.2.2 Excel add-in version 4.2.2 build 18 math 1Q version 2.1.2 build 18). All pEC50 and pIC50 values are reported as arithmetic means±standard error of mean of ‘n’ independent experiments.

[2] = biological target: T2, hM1 (human Muscarinic receptor subtype 1) (Homo sapiens, UniProt P11229); experiment: Human M1 calcium mobilization FLIPR assay
T2 construct: expressed in transfected cells; host or cells: CHO cells (Chinese hamster ovary cells, ATCC)
T2 sequence (P11229 1-460): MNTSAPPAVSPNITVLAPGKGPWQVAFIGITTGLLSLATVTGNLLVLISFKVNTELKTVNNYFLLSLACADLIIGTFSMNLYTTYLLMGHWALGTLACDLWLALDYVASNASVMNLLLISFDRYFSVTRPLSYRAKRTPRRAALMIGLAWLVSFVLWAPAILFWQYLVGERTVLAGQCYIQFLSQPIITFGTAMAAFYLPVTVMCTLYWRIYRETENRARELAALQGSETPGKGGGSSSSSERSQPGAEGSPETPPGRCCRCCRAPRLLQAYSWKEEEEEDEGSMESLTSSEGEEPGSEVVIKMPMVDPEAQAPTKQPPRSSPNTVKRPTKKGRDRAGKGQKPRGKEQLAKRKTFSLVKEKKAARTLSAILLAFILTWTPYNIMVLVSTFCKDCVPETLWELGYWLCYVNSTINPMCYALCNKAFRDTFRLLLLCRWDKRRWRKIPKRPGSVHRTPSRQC
Procedure: as §1, §2, §3, §4

[3] = biological target: T3, hM3 (human Muscarinic receptor subtype 3) (Homo sapiens, UniProt P20309); experiment: Human M3 calcium mobilization FLIPR assay; conditions: receptor expressed in CHO cells, intracellular Ca2+ release
T3 construct: expressed in transfected cells; host or cells: CHO cells (Chinese hamster ovary cells, ATCC)
T3 sequence (P20309 whole entry): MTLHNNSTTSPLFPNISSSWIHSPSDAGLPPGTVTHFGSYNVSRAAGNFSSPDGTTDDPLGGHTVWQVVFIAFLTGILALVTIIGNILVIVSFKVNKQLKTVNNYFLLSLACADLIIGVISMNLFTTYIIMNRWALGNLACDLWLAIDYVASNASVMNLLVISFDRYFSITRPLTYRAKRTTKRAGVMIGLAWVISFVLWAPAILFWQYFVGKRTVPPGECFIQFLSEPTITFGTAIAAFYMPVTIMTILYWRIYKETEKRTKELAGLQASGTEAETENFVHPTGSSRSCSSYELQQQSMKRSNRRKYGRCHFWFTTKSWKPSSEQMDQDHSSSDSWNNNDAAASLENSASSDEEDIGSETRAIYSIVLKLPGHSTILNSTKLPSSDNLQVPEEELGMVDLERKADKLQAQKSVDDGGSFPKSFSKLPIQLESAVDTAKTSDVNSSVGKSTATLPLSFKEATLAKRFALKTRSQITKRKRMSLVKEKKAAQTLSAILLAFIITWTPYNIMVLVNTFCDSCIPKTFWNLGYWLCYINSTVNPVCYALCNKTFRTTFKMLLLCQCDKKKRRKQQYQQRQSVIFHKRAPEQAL
Procedure: as §1, §2, §3, §4

[4] = receptor expressed in CHO cells, intracellular Ca2+ release, read-out: hM1 EC50

EC50 [2, 4] | EC50 ([2]; read-out: hM1 EC50 values) | SMILES | other results
270 nM |  | COc1ccsc1C(=O)N1CCC(N2CCC(N3C(=O)OC[C@H]4CCCC[C@@H]43)CC2)CC1 (racemic) [Example 17, (±)(trans)-10-[1-[1-(3-methoxythiophene-2-carbonyl)-4-piperidyl]-4-piperidyl]-8-oxa-10-azabicyclo[4.4.0]decan-9-one] | EC50 [1]: > 40000 nM; EC50 [3]: > 40000 nM
 | > 2890 nM | Cc1ccccc1C(=O)N1CCC(N2CCC(N3C(=O)OC[C@H]4CCCC[C@@H]43)CC2)CC1 [(4aS,8aS)-1-[1-[1-(2-methylbenzoyl)-4-piperidyl]-4-piperidyl]-4a,5,6,7,8,8a-hexahydro-4H-benzo[d][1,3]oxazin-2-one] | 
31 nM |  | CCOC(=O)N1CCC(N2CCC(N3C(=O)NC[C@H]4CCCC[C@@H]43)CC2)C1 (stereo partly drawn) [Example 5, ethyl 3-[4-[(4aR,8aS)-2-oxo-3,4,4a,5,6,7,8,8a-octahydroquinazolin-1-yl]-1-piperidyl]pyrrolidine-1-carboxylate] | 
220 nM |  | CC(C)OC(=O)N1CCC(N2CCC(N3C(=O)OC[C@H]4CCCC[C@@H]43)CC2)CC1 [Example 16, Propan-2-yl 4-[4-[(1S,6S)-9-oxo-8-oxa-10-azabicyclo[4.4.0]dec-10-yl]-1-piperidyl]piperidine-1-carboxylate] | 
 | > 2890 nM | CC(C)OC(=O)N1CCC(C)(N2CCC(N3C(=O)CN[C@H]4CCCC[C@@H]43)CC2)CC1 [isopropyl 4-[4-[(4aS,8aS)-2-oxo-3,4,4a,5,6,7,8,8a-octahydroquinoxalin-1-yl]-1-piperidyl]-4-methyl-piperidine-1-carboxylate] | 
 | > 2890 nM | CC(C)OC(=O)N1CCC(C)(N2CCC(N3C(=O)CO[C@H]4CCCC[C@@H]43)CC2)CC1 [isopropyl 4-[4-[(4aS, 8aS)-3-oxo-4a,5,6,7,8,8a-hexahydrobenzo[b][1,4]oxazin-4-yl]-1-piperidyl]-4-methyl-piperidine-1-carboxylate] | 
 | > 2890 nM | CC(C)OC(=O)N1CC[C@H](N2CCC(N3C(=O)CO[C@H]4CCCC[C@@H]43)CC2)C1 [isopropyl (3S)-3-[4-[(4aS,8aS)-3-oxo-4a,5,6,7,8,8a-hexahydrobenzo[b][1,4]oxazin-4-yl]-1-piperidyl]pyrrolidine-1-carboxylate] | 
 | > 2890 nM | COC(=O)N1CCC(N2CCC(N3C(=O)OC[C@H]4CCCC[C@@H]43)CC2)CC1 [methyl 4-[4-[(4aS,8aS)-2-oxo-4a,5,6,7,8,8a-hexahydro-4H-benzo[d][1,3]oxazin-1-yl]-1-piperidyl]piperidine-1-carboxylate] | 
 | > 2890 nM | CC(C)(C)OC(=O)N1CCC(N2CCC(N3C(=O)OC[C@@H]4CCCC[C@H]43)CC2)CC1 [tert-butyl 4-[4-[(4aR,8aR)-2-oxo-4a,5,6,7,8,8a-hexahydro-4H-benzo[d][1,3]oxazin-1-yl]-1-piperidyl]piperidine-1-carboxylate] | 
 | > 2890 nM | CC(C)(C)OC(=O)N1CCC(N2CCC(N3C(=O)CO[C@H]4CCCC[C@@H]43)CC2)CC1 [tert-butyl 4-[4-[(4aS,8aS)-3-oxo-4a,5,6,7,8,8a-hexahydrobenzo[b][1,4]oxazin-4-yl]-1-piperidyl]piperidine-1-carboxylate] | 
